Source: US4457865A, “Sialic acid specific slug lectin” (Research Corporation, priority 1982, dated 1984)
Where two headings read alike, the source gives them in different places.

Key:
[1] = tested on: AS-40-80 fraction (partially purified LFA); assay: Inhibition of hemagglutination by partially purified LFA (AS-40-80 fraction); format: cell-based, Limax flavus; conditions: for Inhibition (%) AS-40-80 Fraction: 20 μg protein of AS-40-80 per assay
Description: (§1) Hemagglutination Assay: Aliquots of lectin were adjusted to 0.5 ml by addition of tris-saline buffer which contained 0.4 mg/ml gelatin. To this was added 0.5 ml of a solution containing human erythrocytes that had been washed several times with 0.9% NaCl and whose absorbance at 620 nm was ~2. After standing at room temperature for 30 min. the cells were gently pelleted by centrifugation in a Dynac centrifuge. The cells were resuspended by shaking and allowed to stand for 5 min. in order to permit aggregating cells to settle. The absorbance at 620 nm of the upper one-half ml of the erythrocyte suspension was measured and the data were plotted as A620 versus μg or μl of lectin. One unit of activity is defined as the amount of LFA which gave a 50% agglutination. Percent agglutination was calculated as follows: [formula]
(§2) A 0.5 ml aliquot of erythrocytes was added to the lectin plus inhibitor solution and the percent agglutination determined as described above. The percent inhibition of agglutination represents the difference between the percent agglutination with lectin alone and that obtained with lectin plus inhibitor.

[2] = tested on: purified LFA (sialic acid specific slug lectin); assay: Inhibition of hemagglutination by purified LFA; format: cell-based, Limax flavus; conditions: for Inhibition (%) Purified LFA: 0.34 μg purified LFA per assay; for IC50: read-out: Concentration giving 50% inhibition of hemagglutination, affinity purified LFA; for Ability to inhibit hemagglutination by purified slug lectin (in words): some 17 carbohydrates tested, concentrations as high as 10-25 mM
Description: as §1, §2

slug lectin = assay: Double diffusion of slug lectin in agar gel against sialoproteins; format: binding, Limax flavus

Molecule: OC[C@H]1OC(O)[C@H](O)[C@@H](O)[C@H]1O (single isomer, unassigned) [D (+) Galactose]
- Inhibition (%) AS-40-80 Fraction ([1]; carbohydrate 25.0 mM): 0%
- Inhibition (%) Purified LFA ([2]; carbohydrate 25.0 mM): 0%

Molecule: OC[C@H]1OC(O)[C@@H](O)[C@@H](O)[C@@H]1O (single isomer, unassigned) [D (+) Mannose]
- Inhibition (%) AS-40-80 Fraction ([1]; carbohydrate 25.0 mM): 0%
- Inhibition (%) Purified LFA ([2]; carbohydrate 25.0 mM): 0%

Molecule: OC1OC[C@@H](O)[C@H](O)[C@H]1O (single isomer, unassigned) [D (+) Xylose]
- Inhibition (%) AS-40-80 Fraction ([1]; carbohydrate 25.0 mM): 0%
- Inhibition (%) Purified LFA ([2]; carbohydrate 25.0 mM): 0%

Molecule: OC[C@H]1OC(O)[C@H](O)[C@@H](O)[C@@H]1O (single isomer, unassigned) [D (-) Glucose]
- Inhibition (%) AS-40-80 Fraction ([1]; carbohydrate 25.0 mM): 0%
- Inhibition (%) Purified LFA ([2]; carbohydrate 25.0 mM): 0%

Molecule: O=C(O)[C@H]1OC(O)[C@H](O)[C@@H](O)[C@@H]1O (single isomer, unassigned) [D (-) Glucuronic Acid]
- Inhibition (%) AS-40-80 Fraction ([1]; carbohydrate 25.0 mM): 0%
- Inhibition (%) Purified LFA ([2]; carbohydrate 25.0 mM): 0%

Molecule: N[C@H]1C(O)O[C@H](CO)[C@H](O)[C@@H]1O (stereo partly drawn) [Galactosamine]
- Inhibition of hemagglutination by the 40-80% ammonium sulfate fraction (in words) [1]: inhibition of hemagglutination
- Inhibition (%) AS-40-80 Fraction ([1]; carbohydrate 25.0 mM): 45%
- Inhibition (%) Purified LFA ([2]; carbohydrate 25.0 mM): 0%

Molecule: N[C@H]1C(O)O[C@H](CO)[C@@H](O)[C@@H]1O (stereo partly drawn) [Glucosamine]
- Inhibition of hemagglutination by the 40-80% ammonium sulfate fraction (in words) [1]: inhibition of hemagglutination
- Inhibition (%) AS-40-80 Fraction ([1]; carbohydrate 25.0 mM): 19%
- Inhibition (%) Purified LFA ([2]; carbohydrate 25.0 mM): 0%

Molecule: OC[C@H]1O[C@@H](O[C@H]2[C@H](O)[C@@H](O)C(O)O[C@@H]2CO)[C@H](O)[C@@H](O)[C@H]1O (stereo partly drawn) [Lactose]
- Inhibition (%) AS-40-80 Fraction ([1]; carbohydrate 25.0 mM): 0%
- Inhibition (%) Purified LFA ([2]; carbohydrate 25.0 mM): 0%

Molecule: CC(=O)N[C@H]1C(O)O[C@H](CO)[C@H](O)[C@@H]1O (stereo partly drawn) [N--Acetyl-D-Galactosamine]
- Inhibition of hemagglutination by the 40-80% ammonium sulfate fraction (in words) [1]: inhibition of hemagglutination
- Inhibition (%) AS-40-80 Fraction ([1]; carbohydrate 10.0 mM): 75%
- Inhibition (%) Purified LFA ([2]; carbohydrate 10.0 mM): 0%

Molecule: CC(=O)N[C@H]1C(O)O[C@H](CO)[C@@H](O)[C@@H]1O (stereo partly drawn) [N--Acetyl-D-Glucosamine]
- Inhibition of hemagglutination by the 40-80% ammonium sulfate fraction (in words) [1]: inhibition of hemagglutination
- Inhibition (%) AS-40-80 Fraction ([1]; carbohydrate 10.0 mM): 53%
- Inhibition (%) Purified LFA ([2]; carbohydrate 10.0 mM): 0%

Molecule: CC(=O)N[C@H]1[C@H]([C@H](O)[C@H](O)CO)OC(O)(C(=O)O)C[C@@H]1O (stereo partly drawn) [N--Acetylneuraminic Acid, N-acetylneuraminic acid]
- Inhibition of hemagglutination by the 40-80% ammonium sulfate fraction (in words) [1]: inhibition of hemagglutination
- Inhibition (%) AS-40-80 Fraction ([1]; carbohydrate .05 mM): 6%
- Inhibition (%) AS-40-80 Fraction ([1]; carbohydrate .10 mM): 17%
- Inhibition (%) AS-40-80 Fraction ([1]; carbohydrate .15 mM): 27%
- Inhibition (%) AS-40-80 Fraction ([1]; carbohydrate .20 mM): 94%
- Inhibition (%) Purified LFA ([2]; carbohydrate .05 mM): 1%
- Inhibition (%) Purified LFA ([2]; carbohydrate .10 mM): 28%
- Inhibition (%) Purified LFA ([2]; carbohydrate .15 mM): 54%
- Inhibition (%) Purified LFA ([2]; carbohydrate .20 mM): 100%
- IC50 [2]: 130 µM
- Ability to inhibit hemagglutination by purified slug lectin (in words) [2]: effective

Molecule: O=C(CO)N[C@H]1[C@H]([C@H](O)[C@H](O)CO)OC(O)(C(=O)O)C[C@@H]1O (stereo partly drawn) [N--Glycolyneuraminic Acid, N-glycolylneuraminic acid]
- Inhibition of hemagglutination by the 40-80% ammonium sulfate fraction (in words) [1]: inhibition of hemagglutination
- Inhibition (%) AS-40-80 Fraction ([1]; carbohydrate 1.0 mM): 88%
- Inhibition (%) AS-40-80 Fraction ([1]; carbohydrate .25 mM): 3%
- Inhibition (%) AS-40-80 Fraction ([1]; carbohydrate .50 mM): 20%
- Inhibition (%) AS-40-80 Fraction ([1]; carbohydrate .75 mM): 56%
- Inhibition (%) Purified LFA ([2]; carbohydrate 1.0 mM): 85%
- Inhibition (%) Purified LFA ([2]; carbohydrate .25 mM): 0%
- Inhibition (%) Purified LFA ([2]; carbohydrate .50 mM): 2%
- Inhibition (%) Purified LFA ([2]; carbohydrate .75 mM): 14%
- IC50 [2]: 900 µM
- IC50 ([2]; listed as GlyNeu): 810 µM
- Ability to inhibit hemagglutination by purified slug lectin (in words) [2]: effective

Molecule: OC[C@H]1O[C@@](CO)(O[C@H]2O[C@H](CO)[C@@H](O)[C@H](O)[C@H]2O)[C@@H](O)[C@@H]1O [Sucrose]
- Inhibition (%) AS-40-80 Fraction ([1]; carbohydrate 25.0 mM): 0%
- Inhibition (%) Purified LFA ([2]; carbohydrate 25.0 mM): 0%

Molecule: O[C@@H]1[C@@H](O)[C@@H](O)CO[C@H]1O [α (+) Arabinose]
- Inhibition (%) AS-40-80 Fraction ([1]; carbohydrate 25.0 mM): 0%
- Inhibition (%) Purified LFA ([2]; carbohydrate 25.0 mM): 0%

Molecule: C[C@@H]1O[C@@H](O)[C@@H](O)[C@H](O)[C@@H]1O [α-L(-) Fucose]
- Inhibition (%) AS-40-80 Fraction ([1]; carbohydrate 25.0 mM): 0%
- Inhibition (%) Purified LFA ([2]; carbohydrate 25.0 mM): 0%

Molecule: CO[C@H]1O[C@H](CO)[C@@H](O)[C@H](O)[C@H]1O [α-Methyl-D-Glucoside]
- Inhibition (%) AS-40-80 Fraction ([1]; carbohydrate 25.0 mM): 0%
- Inhibition (%) Purified LFA ([2]; carbohydrate 25.0 mM): 0%

Molecule: CO[C@H]1O[C@H](CO)[C@@H](O)[C@H](O)[C@@H]1O [α-Methyl-D-Mannose]
- Inhibition (%) AS-40-80 Fraction ([1]; carbohydrate 25.0 mM): 0%
- Inhibition (%) Purified LFA ([2]; carbohydrate 25.0 mM): 0%

B1: fetuin: sialoprotein, highly purified bovine fetuin (protein, UniProt P12763 19-359, looked up)
Alpha-2-HS-glycoprotein: IPLDPVAGYKEPACDDPDTEQAALAAVDYINKHLPRGYKHTLNQIDSVKVWPRRPTGEVYDIEIDTLETTCHVLDPTPLANCSVRQQTQHAVEGDCDIHVLKQDGQFSVLFTKCDSSPDSAEDVRKLCPDCPLLAPLNDSRVVHAVEVALATFNAESNGSYLQLVEISRAQFVPLPVSVSVEFAVAATDCIAKEVVDPTKCNLLAEKQYGFCKGSVIQKALGGEDVRVTCTLFQTQPVIPQPQPDGAEAEAPSAVPDAAGPTPSAAGPPVASVVVGPSVVAVPLPLHRAHYDLRHTFSGVASVESSSGEAFHVGKTPIVGQPSIPGGPVRLCPGRIRYFKI
- Precipitin lines in double diffusion against slug lectin after asialylation (slug lectin; asialylated sialoprotein): lost
- Precipitin lines in double diffusion against slug lectin (slug lectin; native sialoprotein): yielded precipitin lines
- Inhibitory activity on slug lectin hemagglutination after asialylation ([2]; after incubation at 80° for one hour in 0.1N H2SO4): complete loss of inhibitory activity
